Two substances from article PMC7961786, “Magic Peptide: Unique Properties of the LRR11 Peptide in the Activation of Leukotriene Synthesis in Human Neutrophils” (International Journal of Molecular Sciences, 2021) can be followed below.

“Also recorded” adds a separate entry of the source.

The series relates to human neutrophils (PMNLs), 5-LOX product synthesis. Kind of series: 5-LOX metabolite synthesis in human neutrophils stimulated with opsonized S. typhimurium (HPLC). It is filed as cell-based.

Consider “5′-tcgtcgttttcggcgcgcgccg-3′ (DNA TCGTCGTTTTCGGCGCGCGCCG; chemistry not fully specified) [C-CpG]”, for which the “effect on 5-LOX activity / leukotriene synthesis” value (ODN alone, 1 µM, 20 min, then opsonized S. typhimurium 15 min, Figure 1, five independent experiments in duplicate) is “increased leukotriene synthesis”. Also, the “Σ 5-LOX metabolites” value (Table S1, 2×10^7 PMNLs, 15 min at 37 °C without or with 5 µM Chloroquine, then ODN, after 20 min 0.5×10^9 opsonized S. typhimurium for 15 min, mean ± SEM, three independent experiments) was 42.1 ± 4.2 ng/107 PMNLs.

For “QLRKLNLSFNYQKRVSFAHLSLAPSFGSLV [LRR11, 30 amino acid peptide from leucine-rich repeat of TLR9]”, the “effect of LRR11 on 5-LOX product synthesis in combination with ODN or LPS” value (1 µM LRR11 added simultaneously with 1 µM ODN or LPS, then opsonized S. typhimurium, Figure 1) was “does not significantly change the effects of G-rich ODN and lipopolysaccharides (LPS), but obviously enhances the effects of CpG-ODNs; also recorded: stimulated the formation of the 5-LOX products; also recorded: synergistically amplifying each other’s effects”. Further, the “effect of LRR11 on FPS-ZM1 action on leukotriene synthesis” value (1 µM LRR11 with ODN after 0.15 µM FPS-ZM1, Figure 3) was “its action is nullified in the presence of LRR11 peptide; also recorded: LRR11 abolished the effects of FPS-ZM1 and restored the level of leukotriene synthesis”. The “LTB4 accumulation, dependence on way of LRR11 addition” value ((1) LRR11 15 min before ODN, (2) simultaneously but independently, (3) 1-h pre-mixed) is “only pathways (2) and (3) provide a significant effect on LTB4 accumulation”.
